Data reported in patent publication US20190216712A1, “Hair dye composition, preparation method, and application method thereof” (SHANGHAI CLINICAL ENGINE TECHNOLOGY DEVELOPMENT CO., LTD., priority 2017, published 2019).
Like-named read-outs stand apart in the source and are kept apart here.

Tested on: human epithelial-derived cells (293T)
Experiment: CCK-8 test of killing ability to cells (Embodiment 14)
Type: cell-based
Description: According to embodiments 1-3, water-soluble pigment solubilizing carrier dye was prepared, while cationic carrier ([…]) was used. First, human epithelial-derived cells (293T) were cultured, which was divided into three groups corresponding to a polyethyleneimine-co-isopropylacrylamide (water-soluble pigment solubilizing carrier) group, a polyethyleneimine-co-isopropylacrylamide (a water-soluble pigment solubilizing carrier) dye, and a commercially available cationic carrier group; the cells were cultured with commercially available cell culture medium ([…]) for 24 hours to obtain cells in the logarithmic growth phase; at this time, the same concentration gradient of polyethyleneimine-co-isopropylacrylamide (water-soluble pigment solubilizing carrier), polyethyleneimine-co-isopropylacrylamide (a water-soluble pigment solubilizing carrier)-pigment, and commercially available cationic carrier were added to the culture dishes of the three groups of cells; after 24 hours of culture, the CCK-8 test kit was used to examine the killing ability of the three groups of systems to the cells.

Molecule	damage of cells (293T cells, concentration gradient, 24 hours of culture)	damage of cells
CCCCCCCCCCCCOS(=O)(=O)[O-].[Na+] [commercially available cationic carrier, sodium lauryl sulfate]	cell death was rapid	
polyethyleneimine-co-isopropylacrylamide		hardly damaged
